In experiment [1] the target is T1, SARS-CoV-2 Spike A (wild-type) (Severe acute respiratory syndrome coronavirus 2, UniProt P0DTC2).
T1 construct: purchased Meso Scale Diagnostics, LLC V-PLEX SARS-CoV-2 Panel 13 (ACE2) Kit / Panel 23 (ACE2) Kit
Kind of experiment: MSD ACE2 competition assay (inhibition of Spike binding with ACE2, ECL), A (wild-type).

A further experiment addresses SARS-CoV-2 Spike protein (Severe acute respiratory syndrome coronavirus 2, UniProt P0DTC2). Kind of experiment: Ternary binding of SARS-CoV-2 Spike protein (293T cells expressing Spike-GFP, IgG-AF647, flow cytometry). In kind it is cell-based. To be noted: 293T cells expressing Spike-GFP; IgG-AF647 10 μg/ml; repeat values/batches listed separately; read-out: SARS-CoV-2 Ternary binding EC50.

[2] abbreviates: IC50 Wild Type, Wild Type Spike.

pEC50, pIC50: −log10 of the molar value. Values joined by “and” are separate entries in the source; they are usually repeats but may differ in a detail not shown here. Identical values can stand only once. Like-named read-outs stand apart in the source and are kept apart here.

The compound `CC[C@H](C)[C@H](NC(=O)[C@H](CC(C)C)NC(=O)[C@H](CC(=O)O)NC(=O)[C@H](CO)NC(=O)[C@@H](NC(=O)[C@H](CCCNC(=N)N)NC(=O)[C@H](CCSC)NC(=O)[C@H](CO)NC(=O)[C@H](C)NC(=O)[C@H](CCC(=O)O)NC(=O)[C@H](C)NC(=O)[C@H](Cc1c[nH]cn1)NC(=O)CNC(=O)[C@H](CC(C)C)NC(=O)[C@H](CCC(=O)O)NC(=O)[C@H](CC(=O)O)NC(=O)[C@H](CC(C)C)NC(=O)[C@H](CC(C)C)NC(=O)[C@H](CCCNC(=N)N)NC(=O)[C@H](CCSC)NC(=O)[C@@H](NC(=O)[C@H](CCC(=O)O)NC(=O)[C@H](Cc1ccc(O)cc1)NC(=O)[C@@H](NC(=O)[C@H](CCCCN)NC(=O)[C@H](CCC(N)=O)NC(=O)[C@H](CC(C)C)NC(=O)[C@@H](NC(=O)[C@H](Cc1c[nH]c2ccccc12)NC(=O)[C@H](CCC(=O)O)NC(=O)[C@H](CCCCN)NC(=O)[C@@H](N)CC(=O)O)[C@@H](C)CC)[C@@H](C)CC)[C@@H](C)CC)C(C)C)C(=O)N[C@@H](Cc1ccc(O)cc1)C(=O)N[C@@H](CCC(=O)O)C(=O)N[C@@H](Cc1ccccc1)C(=O)N[C@@H](CCSC)C(=O)N[C@@H](CCCCN)C(=O)N[C@@H](CCCCN)C(=O)N[C@@H](CC(=O)O)C(=O)N[C@H]1CSSC[C@@H](C(=O)N[C@H](C(=O)O)[C@@H](C)O)NC(=O)[C@H](Cc2c[nH]c3ccccc23)NC(=O)[C@H](C(C)C)NC(=O)[C@H](CC(C)C)NC(=O)[C@H](CCC(=O)O)NC(=O)CNC(=O)[C@H](CC(C)C)NC(=O)[C@H](Cc2c[nH]cn2)NC(=O)[C@H](Cc2c[nH]c3ccccc23)NC(=O)[C@H](C)NC1=O` [Compound 115] had a pIC50 in experiment [1] (setting [2]) of 7.34. For the same compound, the negative logarithm of the EC50 (pEC50) on SARS-CoV-2 Spike protein is 9.47 and 9.44 and 9.64 and 9.59.

On to `CC[C@H](C)[C@H](NC(C)=O)C(=O)N[C@@H](CC(C)C)C(=O)N[C@@H](CCC(N)=O)C(=O)N[C@@H](CCCCN)C(=O)N[C@H](C(=O)N[C@@H](Cc1ccc(O)cc1)C(=O)N[C@@H](CCC(=O)O)C(=O)N[C@H](C(=O)N[C@@H](CCSC)C(=O)N[C@@H](CCCNC(=N)N)C(=O)N[C@@H](CC(C)C)C(=O)N[C@@H](CC(C)C)C(=O)N[C@@H](CC(=O)O)C(=O)N[C@@H](CCC(=O)O)C(=O)N[C@@H](CC(C)C)C(=O)NCC(=O)N[C@@H](Cc1c[nH]cn1)C(=O)N[C@@H](C)C(=O)N[C@@H](CCC(=O)O)C(=O)N[C@@H](C)C(=O)N[C@@H](CO)C(=O)N[C@@H](CCSC)C(=O)N[C@@H](CCCNC(=N)N)C(=O)N[C@H](C(=O)N[C@@H](CO)C(=O)N[C@@H](CC(=O)O)C(=O)N[C@@H](CC(C)C)C(=O)N[C@H](C(=O)N[C@@H](Cc1ccc(O)cc1)C(=O)N[C@@H](CCC(=O)O)C(=O)N[C@@H](Cc1ccccc1)C(=O)N[C@@H](CCSC)C(=O)N[C@@H](CCCCN)C(=O)N[C@@H](CCCCN)C(=O)NCC(=O)N[C@@H](CC(=O)O)C(=O)N[C@H]1CSSC[C@@H](C(=O)N[C@H](C(=O)O)[C@@H](C)O)NC(=O)[C@H](Cc2c[nH]c3ccccc23)NC(=O)[C@H](C(C)C)NC(=O)[C@H](CC(C)C)NC(=O)[C@H](CCC(=O)O)NC(=O)CNC(=O)[C@H](CC(C)C)NC(=O)[C@H](Cc2c[nH]cn2)NC(=O)[C@H](Cc2c[nH]c3ccccc23)NC(=O)[C@H](C)NC1=O)[C@@H](C)CC)C(C)C)[C@@H](C)CC)[C@@H](C)CC` [Compound 116], for which the IC50 in experiment [1] (setting [2]) was > 100 nM (2×) and 114 nM. Also, the pEC50 at SARS-CoV-2 Spike protein is 8.03 and 7.96.

As for `CC[C@H](C)[C@H](N)C(=O)N[C@@H](CC(C)C)C(=O)N[C@@H](CCC(N)=O)C(=O)N[C@@H](CCCCN)C(=O)N[C@H](C(=O)N[C@@H](Cc1ccc(O)cc1)C(=O)N[C@@H](CCC(=O)O)C(=O)N[C@H](C(=O)N[C@@H](CCSC)C(=O)N[C@@H](CCCNC(=N)N)C(=O)N[C@@H](CC(C)C)C(=O)N[C@@H](CC(C)C)C(=O)N[C@@H](CC(=O)O)C(=O)N[C@@H](CCC(=O)O)C(=O)N[C@@H](CC(C)C)C(=O)NCC(=O)N[C@@H](Cc1c[nH]cn1)C(=O)N[C@@H](C)C(=O)N[C@@H](CCC(=O)O)C(=O)N[C@@H](C)C(=O)N[C@@H](CO)C(=O)N[C@@H](CCSC)C(=O)N[C@@H](CCCNC(=N)N)C(=O)N[C@H](C(=O)N[C@@H](CO)C(=O)N[C@@H](CC(=O)O)C(=O)N[C@@H](CC(C)C)C(=O)N[C@H](C(=O)N[C@@H](Cc1ccc(O)cc1)C(=O)N[C@@H](CCC(=O)O)C(=O)N[C@@H](Cc1ccccc1)C(=O)N[C@@H](CCSC)C(=O)N[C@@H](CCCCN)C(=O)N[C@@H](CCCCN)C(=O)NCC(=O)N[C@@H](CC(=O)O)C(=O)N[C@H]1CSSC[C@@H](C(=O)N[C@H](C(=O)O)[C@@H](C)O)NC(=O)[C@H](Cc2c[nH]c3ccccc23)NC(=O)[C@H](C(C)C)NC(=O)[C@H](CC(C)C)NC(=O)[C@H](CCC(=O)O)NC(=O)CNC(=O)[C@H](CC(C)C)NC(=O)[C@H](Cc2c[nH]cn2)NC(=O)[C@H](Cc2c[nH]c3ccccc23)NC(=O)[C@H](C)NC1=O)[C@@H](C)CC)C(C)C)[C@@H](C)CC)[C@@H](C)CC` [Compound 117], the pIC50 in experiment [1] (setting [2]) was 7.26 and 7.21. Also, the pEC50 on SARS-CoV-2 Spike protein is 8.31 and 8.36.

`CC[C@H](C)[C@H](NC(=O)[C@H](CC(C)C)NC(=O)[C@H](CC(=O)O)NC(=O)[C@H](CO)NC(=O)[C@@H](NC(=O)[C@H](CCCNC(=N)N)NC(=O)[C@H](CCSC)NC(=O)[C@H](CO)NC(=O)[C@H](C)NC(=O)[C@H](CCC(=O)O)NC(=O)[C@H](C)NC(=O)[C@H](Cc1c[nH]cn1)NC(=O)CNC(=O)[C@H](CC(C)C)NC(=O)[C@H](CCC(=O)O)NC(=O)[C@H](CC(=O)O)NC(=O)[C@H](CC(C)C)NC(=O)[C@H](CC(C)C)NC(=O)[C@H](CCCNC(=N)N)NC(=O)[C@H](CCSC)NC(=O)[C@@H](NC(=O)[C@H](CCC(=O)O)NC(=O)[C@H](Cc1ccc(O)cc1)NC(=O)[C@@H](NC(=O)[C@H](CCCCN)NC(=O)[C@H](CCC(N)=O)NC(=O)[C@H](CC(C)C)NC(=O)[C@@H](NC(=O)[C@H](Cc1c[nH]c2ccccc12)NC(=O)[C@H](CCC(=O)O)NC(=O)[C@H](CCCCN)NC(=O)[C@H](CC(=O)O)NC(=O)[C@@H](NC(=O)[C@@H]1CSSC[C@H](NC(=O)[C@H](CC(=O)O)NC(C)=O)C(=O)N[C@@H](C)C(=O)N[C@@H](Cc2c[nH]c3ccccc23)C(=O)N[C@@H](Cc2c[nH]cn2)C(=O)N[C@@H](CC(C)C)C(=O)NCC(=O)N[C@@H](CCC(=O)O)C(=O)N[C@@H](CC(C)C)C(=O)N[C@@H](C(C)C)C(=O)N[C@@H](Cc2c[nH]c3ccccc23)C(=O)N1)[C@@H](C)O)[C@@H](C)CC)[C@@H](C)CC)[C@@H](C)CC)C(C)C)C(=O)N[C@@H](Cc1ccc(O)cc1)C(=O)N[C@@H](CCC(=O)O)C(=O)N[C@@H](Cc1ccccc1)C(=O)N[C@@H](CCSC)C(=O)N[C@@H](CCCCN)C(=O)N[C@@H](CCCCN)C(=O)O` [Compound 121] showed a pIC50 in experiment [1] (setting [2]) of 7.97. The pEC50 at SARS-CoV-2 Spike protein is 9.08 and 9.11.

Compound `CC[C@H](C)[C@H](NC(=O)[C@H](CC(C)C)NC(=O)[C@H](CC(=O)O)NC(=O)[C@H](CO)NC(=O)[C@@H](NC(=O)[C@H](CCCNC(=N)N)NC(=O)[C@H](CCSC)NC(=O)[C@H](CO)NC(=O)[C@H](C)NC(=O)[C@H](CCC(=O)O)NC(=O)[C@H](C)NC(=O)[C@H](Cc1c[nH]cn1)NC(=O)CNC(=O)[C@H](CC(C)C)NC(=O)[C@H](CCC(=O)O)NC(=O)[C@H](CC(=O)O)NC(=O)[C@H](CC(C)C)NC(=O)[C@H](CC(C)C)NC(=O)[C@H](CCCNC(=N)N)NC(=O)[C@H](CCSC)NC(=O)[C@@H](NC(=O)[C@H](CCC(=O)O)NC(=O)[C@H](Cc1ccc(O)cc1)NC(=O)[C@@H](NC(=O)[C@H](CCCCN)NC(=O)[C@H](CCC(N)=O)NC(=O)[C@H](CC(C)C)NC(=O)[C@@H](NC(=O)[C@H](Cc1c[nH]c2ccccc12)NC(=O)[C@H](CCC(=O)O)NC(=O)[C@H](CCCCN)NC(=O)[C@H](CC(=O)O)NC(C)=O)[C@@H](C)CC)[C@@H](C)CC)[C@@H](C)CC)C(C)C)C(=O)N[C@@H](Cc1ccc(O)cc1)C(=O)N[C@@H](CCC(=O)O)C(=O)N[C@@H](Cc1ccccc1)C(=O)N[C@@H](CCSC)C(=O)N[C@@H](CCCCN)C(=O)N[C@@H](CCCCN)C(=O)NCC(=O)N[C@@H](CC(=O)O)C(=O)N[C@H]1CSSC[C@@H](C(=O)N[C@H](C(N)=O)[C@@H](C)O)NC(=O)[C@H](Cc2c[nH]c3ccccc23)NC(=O)[C@H](C(C)C)NC(=O)[C@H](CC(C)C)NC(=O)[C@H](CCC(=O)O)NC(=O)CNC(=O)[C@H](CC(C)C)NC(=O)[C@H](Cc2c[nH]cn2)NC(=O)[C@H](Cc2c[nH]c3ccccc23)NC(=O)[C@H](C)NC1=O` [Compound 129] had a pIC50 in experiment [1] (setting [2]) of 7.60. The negative logarithm of the EC50 (pEC50) at SARS-CoV-2 Spike protein was 8.64 and 8.52.

For the compound `CC[C@H](C)[C@H](NC(=O)[C@H](CC(C)C)NC(=O)[C@H](CC(=O)O)NC(=O)[C@H](CO)NC(=O)[C@@H](NC(=O)[C@H](CCCNC(=N)N)NC(=O)[C@H](CCSC)NC(=O)[C@H](CO)NC(=O)[C@H](C)NC(=O)[C@H](CCC(=O)O)NC(=O)[C@H](C)NC(=O)[C@H](Cc1c[nH]cn1)NC(=O)CNC(=O)[C@H](CC(C)C)NC(=O)[C@H](CCC(=O)O)NC(=O)[C@H](CC(=O)O)NC(=O)[C@H](CC(C)C)NC(=O)[C@H](CC(C)C)NC(=O)[C@H](CCCNC(=N)N)NC(=O)[C@H](CCSC)NC(=O)[C@@H](NC(=O)[C@H](CCC(=O)O)NC(=O)[C@H](Cc1ccc(O)cc1)NC(=O)[C@@H](NC(=O)[C@H](CCCCN)NC(=O)[C@H](CCC(N)=O)NC(=O)[C@H](CC(C)C)NC(=O)[C@@H](NC(=O)[C@H](Cc1c[nH]c2ccccc12)NC(=O)[C@H](CCC(=O)O)NC(=O)[C@H](CCCCN)NC(=O)[C@H](CC(=O)O)NC(C)=O)[C@@H](C)CC)[C@@H](C)CC)[C@@H](C)CC)C(C)C)C(=O)N[C@@H](Cc1ccc(O)cc1)C(=O)N[C@@H](CCC(=O)O)C(=O)N[C@@H](Cc1ccccc1)C(=O)N[C@@H](CCSC)C(=O)N[C@@H](CCCCN)C(=O)N[C@@H](CCCCN)C(=O)NCC(=O)NCCOCCOCCOCCOCCOCCOCCOCCOCCC(=O)NCCOCCOCCOCCOCCOCCOCCOCCOCCC(=O)NCCOCCOCCOCCOCCOCCOCCOCCOCCC(=O)N[C@@H](CC(=O)O)C(=O)N[C@H]1CSSC[C@@H](C(=O)N[C@H](C(=O)O)[C@@H](C)O)NC(=O)[C@H](Cc2c[nH]c3ccccc23)NC(=O)[C@H](C(C)C)NC(=O)[C@H](CC(C)C)NC(=O)[C@H](CCC(=O)O)NC(=O)CNC(=O)[C@H](CC(C)C)NC(=O)[C@H](Cc2c[nH]cn2)NC(=O)[C@H](Cc2c[nH]c3ccccc23)NC(=O)[C@H](C)NC1=O` [Compound 168], in experiment [1] (read-out: IC50 Wild Type, Wild Type Spike), the negative-log IC50 (pIC50) was 8.49. In addition, at SARS-CoV-2 Spike protein, the negative logarithm of the EC50 (pEC50) is 9.72.

By pIC50 is commonly meant the IC50 on a negative log10 scale, so that one unit is a factor of ten. As a reminder, the pEC50 is the EC50 on a negative log10 scale, so that one unit is a factor of ten. The term IC50 denotes the concentration that inhibits the measured activity by half. Low values mean greater potency in that assay, high ones weaker potency in that assay.

(Values after patent US20260306644A1, “ANTIBODY RECRUITING MOLECULES FOR THE TREATMENT OF CORONAVIRUS DISEASE-19” (priority 2023, published 2026).)
